We go through 1 compound from the NIST ThermoML archive (doi:10.1016/j.tca.2013.05.039).

Molecules are shown by their SMILES. Numbers after ± are expanded uncertainties.

For series [1] the following is noted: Adiabatic calorimetry.
Series [2] can be described thus: Molar enthalpy of transition or fusion. The settings on record: Adiabatic calorimetry.

For the compound `C1CCCCC1` [cyclohexane], the Triple point temperature in series [1] (Crystal 2) is reported as 186.18 ± 0.049 K; in series [1] (Crystal), 279.86 ± 0.066 K. Moreover, the “Molar enthalpy of transition or fusion” value in series [2] (Crystal 2) is 1.61 ± 0.0163 kcal/mol; in series [2] (Crystal) it was 0.642 ± 0.0129 kcal/mol.
